From publication PMC6042386, “Molecular diversity and function of jasmintides from Jasminum sambac” (BMC Plant Biology, 2018)
Where a SMILES comes first, the peptide text is derived from it. Bridges are numbered along the chain shown (N, C = ends). [ ]: non-standard residue; d: D form. pGlu = O=C1CC[C@@H](C(=O)O)N1

Experiments:
T. molitor larvae = experiment: Effect of jasmintide on the growth of larvae; type: in vivo, Tenebrio molitor
Protocol: At day 0, 10 T. molitor larvae of similar weights (43 ± 2 mg and 47 ± 2 mg in the treatment and control sets, respectively) were fed 200 mg of a diet containing 1 mg of jS3/g of oats. Every three days, the weights of individual larva were recorded, and larvae were transferred to a new dish with the same amount of supplemented diet to maintain a continuous supply. Three independent biological experiments were carried out over a period of 9 days. The control diet was prepared in the same manner without the addition of jS3. Student’s t-test was used to compare the mean with the control.

[1] = Acid stability assay (hydrochloric acid, pH 2.0); type: physicochemical; settings: hydrochloric acid pH 2.0, 37 °C, up to 6 h; quenched with 1 M sodium hydroxide; UPLC peak area, MALDI-MS; three independent experiments, mean (n = 3); read-out: jasmintide remaining under acidic conditions
Protocol: (§1) For the thermal stability assay, jS3 were heated in boiling water for 1 h. At each time interval (1.0 h), a 30-μL sample was aliquoted and quenched in an ice bath for 15 min. For the acid stability assay, jS3 and jS4 were incubated in hydrochloric acid (pH 2.0) for 6 h. At each time interval (2, 4 and 6 h), a 30-μL sample was aliquoted and quenched by adding 1 M sodium hydroxide. For the enzymatic stability assay, jS3 and jS4 were incubated for 6 h at the optimal temperature with a buffer solution, as recommended by the manufacturer. At each time interval (2, 4 and 6 h), a 30-μL sample was aliquoted and quenched by adding 1 M hydrochloric acid. For the serum stability assay, jS3 were incubated with 25% human AB-type male serum in phenol red-free Dulbecco’s modified Eagle’s medium at 37 °C for 24 h. At each time interval (4, 8, 12 and 24 h), a 30-μL sample was aliquoted and quenched with 96% ethanol. Samples were kept at 4 °C for 15 min and then centrifuged at 18,000 rpm for 10 min. For all stability assays, the reaction mixture was analyzed by UPLC and monitored by MALDI-MS. The areas under the peak prior to and after treatment were integrated to determine stability. For each stability assay, three independent experiments were performed. At each time point, the sample was quenched by the specific reagent aforementioned and analyzed by UPLC in triplicates.

carboxypeptidase A = experiment: Enzymatic stability assay, exopeptidase carboxypeptidase A; type: in vitro ADME; settings: 37 °C, manufacturer's buffer, up to 6 h, quenched with 1 M hydrochloric acid, UPLC peak area, MALDI-MS, three independent experiments, mean (n = 3), read-out: jS3 remaining intact with carboxypeptidase A
Protocol: as §1

trypsin = experiment: Enzymatic stability assay, endopeptidase trypsin; type: in vitro ADME; settings: 37 °C, manufacturer's buffer, up to 6 h, quenched with 1 M hydrochloric acid, UPLC peak area, MALDI-MS, three independent experiments, mean (n = 3), read-out: jS3 remaining intact with trypsin
Protocol: as §1

[2] = Thermal stability assay (boiling water); type: physicochemical; settings: boiling water (100 °C), quenched in ice bath 15 min, UPLC peak area before/after, monitored by MALDI-MS, three independent experiments, mean (n = 3), read-out: jasmintide remaining after thermal treatment
Protocol: as §1

[3] = system: Tenebrio molitor mealworm larvae; experiment: Feeding deterrent no-choice assay; type: in vivo; settings: 24 h, 29 ± 1 °C in the dark, 30 larvae per concentration
Protocol: The antifeedant activity was examined using a no-choice assay. Oat flakes were soaked in different concentrations of jS3 (0.5 to 30 mg/g of oat) and lyophilized. The control diet was prepared in the same manner without addition of jS3. Ten T. molitor larvae of similar weights (41 ± 3 mg) were placed in a tissue culture dish with 500 mg of oats. The dishes were transferred into a rearing chamber and kept at 29 ± 1 °C in the dark. After 24 h, the remaining oat flakes were weighed, and the amount consumed was calculated. In total, 30 larvae were used for each concentration, and three independent biological experiments were performed. The feeding deterrence activity was determined as follows: Feeding Deterrence IndexFDI=C−T∗100/C+T
where C represents the average weight of consumed control diet and T represents the average weight of consumed treatment diet within the groups. The overall differences in feeding amounts were compared to the control and were compared to each other using one-way ANOVA.

insect Sf9 cells = experiment: Co-incubation of insect Sf9 cells with jS3 (morphology, mortality); type: cell-based; settings: concentrations up to 100 μM, co-incubation (Figure S6)
[4] = Human serum stability assay; type: in vitro ADME; settings: 25% human AB-type serum; 25% human AB-type male serum in phenol red-free DMEM, 37 °C, up to 24 h; quenched with 96% ethanol; UPLC peak area, MALDI-MS; three independent experiments, mean (n = 3); read-out: jS3 remaining intact after incubation with human serum
Protocol: as §1

## CC[C@H](C)[C@H](NC(=O)[C@H](CC(N)=O)NC(=O)[C@@H]1CSSC[C@@H]2NC(=O)[C@H](CC(=O)O)NC(=O)[C@H](CCCNC(=N)N)NC(=O)[C@H](CO)NC(=O)[C@H]([C@@H](C)O)NC(=O)[C@H](CCC(N)=O)NC(=O)[C@@H]3CSSC[C@H](NC(=O)[C@H](C(C)C)NC(=O)[C@H]([C@@H](C)O)NC(=O)[C@H](Cc4c[nH]c5ccccc45)NC(=O)[C@H]([C@@H](C)CC)NC(=O)[C@H]([C@@H](C)CC)NC(=O)[C@H](Cc4ccc(O)cc4)NC(=O)[C@H](CC(N)=O)NC2=O)C(=O)N[C@@H](CCCNC(=N)N)C(=O)N[C@@H](CC(=O)O)C(=O)NCC(=O)N[C@@H](CSSC[C@H](NC(=O)[C@H](CC(C)C)NC(=O)[C@@H]2CCC(=O)N2)C(=O)N[C@@H](CC(C)C)C(=O)N[C@@H](CC(C)C)C(=O)N3)C(=O)N1)C(=O)N[C@@H](CO)C(=O)O [jS3] ([pGlu]LCLLCQTSRDCNYIIWTVCRDGCCNIS-OH; disulfide 3-24, 6-20, 12-25; C-terminus assumed)
T. molitor larvae; after nine days on diet containing 1 mg of jS3 per gram of oat flakes, n = 30 larvae, significantly less than control (47.4 to 71.2 mg)
  average body weight of the treatment group after nine-day treatment: 62.2 mg
T. molitor larvae; day 0, diet containing 1 mg of jS3 per gram of oat flakes, n = 30 larvae
  average body weight of the treatment group, start: 44.3 mg
T. molitor larvae; nine-day treatment, 1 mg of jS3 per gram of oat flakes
  fatality of larvae during the period of treatment: No fatality
[1]
  remaining at 6 h: > 90%
Carboxypeptidase A
  remaining at 6 h: > 80%
trypsin
  remaining at 6 h: > 80%
[2]
  remaining at 1 h: > 92%
[3]; 1 mg/g of jasmintide in the diet (oat flakes), three independent experiments
  feeding deterrence index (FDI): 42.9%
[3]; 30 mg/g of jasmintide in the diet (oat flakes), highest value
  feeding deterrence index (FDI): 93.6%
Insect Sf9 cells
  change in morphology and mortality rate of Sf9 cells: insignificant effects
[4]
  remaining at 24 h: > 79%
